Assay results: ChEMBL document CHEMBL3817807, “Sequence-specific DNA binding by long hairpin pyrrole-imidazole polyamides containing an 8-amino-3,6-dioxaoctanoic acid unit” (Bioorg Med Chem, 2016)
The source made the active and inactive calls.

Key:
[1] = Binding affinity to TGTCAGCGA oligonucleotide DNA sequence (unknown origin) at 50 nM incubated for 16 hrs by PCR based Bind-n-Seq analysis
[2] = Binding affinity to TAGTCAGCC oligonucleotide DNA sequence (unknown origin) at 50 nM incubated for 16 hrs by PCR based Bind-n-Seq analysis
[3] = Binding affinity to ATGTCTGCC oligonucleotide DNA sequence (unknown origin) at 50 nM incubated for 16 hrs by PCR based Bind-n-Seq analysis
[4] = Binding affinity to TGTCAGCCT oligonucleotide DNA sequence (unknown origin) at 50 nM incubated for 16 hrs by PCR based Bind-n-Seq analysis
[5] = Binding affinity to AGTCAGCCT oligonucleotide DNA sequence (unknown origin) at 50 nM incubated for 16 hrs by PCR based Bind-n-Seq analysis
[6] = Binding affinity to GGCTGACTG oligonucleotide DNA sequence (unknown origin) at 50 nM incubated for 16 hrs by PCR based Bind-n-Seq analysis
[7] = Binding affinity to GGTTGACAT oligonucleotide DNA sequence (unknown origin) at 50 nM incubated for 16 hrs by PCR based Bind-n-Seq analysis
[8] = Binding affinity to TGGCAGACT oligonucleotide DNA sequence (unknown origin) at 50 nM incubated for 16 hrs by PCR based Bind-n-Seq analysis
[9] = Binding affinity to GTGTCAGCC oligonucleotide DNA sequence (unknown origin) at 50 nM incubated for 16 hrs by PCR based Bind-n-Seq analysis
[10] = Binding affinity to TGGCAGACA oligonucleotide DNA sequence (unknown origin) at 50 nM incubated for 16 hrs by PCR based Bind-n-Seq analysis
[11] = Binding affinity to GGGCAGAAA oligonucleotide DNA sequence (unknown origin) at 50 nM incubated for 16 hrs by PCR based Bind-n-Seq analysis
[12] = Binding affinity to AAAGAAGGC oligonucleotide DNA sequence (unknown origin) at 50 nM incubated for 16 hrs by PCR based Bind-n-Seq analysis
[13] = Binding affinity to AAAGGGTAA oligonucleotide DNA sequence (unknown origin) at 50 nM incubated for 16 hrs by PCR based Bind-n-Seq analysis
[14] = Binding affinity to AAAGGAATC oligonucleotide DNA sequence (unknown origin) at 50 nM incubated for 16 hrs by PCR based Bind-n-Seq analysis
[15] = Binding affinity to AGGCGAAAT oligonucleotide DNA sequence (unknown origin) at 50 nM incubated for 16 hrs by PCR based Bind-n-Seq analysis
[16] = Binding affinity to AAAGGCCGA oligonucleotide DNA sequence (unknown origin) at 50 nM incubated for 16 hrs by PCR based Bind-n-Seq analysis
[17] = Binding affinity to ATCGGCAAA oligonucleotide DNA sequence (unknown origin) at 50 nM incubated for 16 hrs by PCR based Bind-n-Seq analysis
[18] = Binding affinity to AGAAAGGCG oligonucleotide DNA sequence (unknown origin) at 50 nM incubated for 16 hrs by PCR based Bind-n-Seq analysis
[19] = Binding affinity to TATGGCTCA oligonucleotide DNA sequence (unknown origin) at 50 nM incubated for 16 hrs by PCR based Bind-n-Seq analysis
[20] = Binding affinity to CCTTTCGGC oligonucleotide DNA sequence (unknown origin) at 50 nM incubated for 16 hrs by PCR based Bind-n-Seq analysis

Measured: Activity

CC(=O)Nc1cn(C)c(C(=O)Nc2cn(C)c(C(=O)NCCOCCOCC(=O)Nc3cn(C)c(C(=O)Nc4cc(C(=O)Nc5cc(C(=O)NCCCC(=O)Nc6cn(C)c(C(=O)Nc7cc(C(=O)Nc8cc(C(=O)NCCC(=O)Nc9cn(C)c(C(=O)Nc%10cc(C(=O)Nc%11cc(C(=O)NCCC(=O)NCCCN(C)CCCNC(=O)CCOCCOCCOCCOCCOCCOCCOCCOCCOCCOCCOCCOCCNC(=O)CCCC[C@@H]%12SC[C@@H]%13NC(=O)N[C@@H]%13%12)n(C)c%11)n(C)c%10)n9)n(C)c8)n(C)c7)n6)n(C)c5)n(C)c4)n3)n2)n1
active: [1] | [2] | [3] | [4] | [5] | [6] | [7] | [8] | [9] | [10]

CC(=O)Nc1cn(C)c(C(=O)Nc2cn(C)c(C(=O)Nc3cc(C(=O)NCCC(=O)Nc4cn(C)c(C(=O)Nc5cc(C(=O)Nc6cc(C(=O)NCCCC(=O)Nc7cn(C)c(C(=O)Nc8cc(C(=O)NCCOCCOCC(=O)Nc9cn(C)c(C(=O)Nc%10cc(C(=O)Nc%11cc(C(=O)NCCC(=O)NCCCN(C)CCCNC(=O)CCOCCOCCOCCOCCOCCOCCOCCOCCOCCOCCOCCOCCNC(=O)CCCC[C@@H]%12SC[C@@H]%13NC(=O)N[C@@H]%13%12)n(C)c%11)n(C)c%10)n9)n(C)c8)n7)n(C)c6)n(C)c5)n4)n(C)c3)n2)n1
active: [11] | [12] | [13] | [14] | [15] | [16] | [17] | [18] | [19] | [20]
